Test results as given in patent US20030077826A1, “Chimeric molecules containing a module able to target specific cells and a module regulating the apoptogenic function of the permeability transition pore complex (PTPC)” (priority 2001, published 2003).
Ends that are not written are not given here. Peptide text beside a SMILES is read from it. * marks the point of attachment. Biotin = O=C1N[C@H]2[C@H](CS[C@H]2CCCCC(=O)*)N1

Legend:
[1] = system: permeability transition pore (PTP); test: Swelling of isolated mitochondria (large amplitude swelling, 90° light scattering); format: biochemical, rat; parameters: key to Induction of Mitochondrial swelling (sw): +++ rapid sw; ++ low sw; + very low sw; − no sw t 20 min; conditions: for Induction of Mitochondrial swelling (sw): 5 μM, 20 min, isolated mitochondria
Protocol: Mitochondria are purified from rat liver, as described (Costantini et al., 1996), and resuspended in 250 mM sucrose+0.1 mM EGTA+10 mM-tris[hydroxymethyl]methyl-2-Aminoethanesulfonic acid, pH=7.4). For the induction of PT, mitochondria (0.5 mg protein per ml) are resuspended in PT buffer (200 mM sucrose, 10 mM Tris-MOPS (pH 7.4), 5 mM Tris-succinate, 1 mM Tris-phosphate, 2 μM rotenone, and 10 μM EGTA-Tris), and monitored in an F4500 fluorescence spectrometer (Hitachi, Tokyo, Japan) for the 90° light scattering of light ([…]), 1 μM cyclosporin A (CsA; Novartis, Basel, Switzerland), 5 μM CaCl2, and/or 0.5 to 20 μM of pTarg-pTox or pTarg-pSave. For the determination of the ΔΨm, mitochondria (0.5 mg protein per ml) are incubated in a buffer supplemented with 1 μM rhodamine 123 (Molecular Probes, Eugene, Oreg.) and the dequenching of rhodamine fluorescence (excitation 505 nm, emission 525 nm) is measured as described (Shimizu et al, 1998). Supernatants from mitochondria (6800 g for 15 min; then 20 000 g for 1 h; 4° C.) are frozen at −80° C. until determination of apoptogenic activity on isolated nuclei, DEVD-afc cleaving activity, and immunodetection of cytochrome c and AIF. Cytochrome c and AIF are detected by means of a monoclonal antibody (clone 7H8.2C12, Pharmingen) and a polyclonal rabbit anti-serum (Susin et al. 1999) respectively.

Purified VDAC = test: Surface plasmon resonance, immobilised peptides with purified VDAC; format: binding; conditions: for specific binding of VDAC: 50 nM VDAC
Protocol: (§1) Sensor Chips SA (streptavidin coated sensor chips) were used for immobilisation of the different peptides. Tox1 was immobilised at a density of 0.7 ng/mm^2, Tox0 at a density of 3.7 ng/mm^2,. Ctr1Tox0 at a density of 1.4 ng/mm^2, Tox5 at a density of 1 ng/mm^2, Tox6 at a density of 1 ng/mm2, Save1 at a density of 1.3 ng/mm^2, and the control peptide at a density of 0.8 ng/mm^2. Association and dissociation kinetics of ANT and VDAC interactions were followed at a rate of 10 μL/min for 10 minutes (5 minutes association and 5 minutes dissociation). The ligand was regenerated with a 1 minute flux of KSCN 3M. The obtained sensorgrams were analysed by the BlAeval 3.1 software using the method of double references (Myszka D. G. 2000. Kinetic, equilibrium and thermodynamic analysis of macromolecular interactions with BIACORE. Methods Enzymol. 323:325-340). From the sensorgrams with the ligands were first substracted the sensorgrams obtained with the corresponding analyte solvents. A second substraction was performed with the sensorgrams obtained with the control peptide ligand. The control peptide for the Tox and Save peptides was biot-H19C corresponding to the sequence of the β2-adrenergic receptor (Lebesgue D., Wallukat G., Mijares A., Granier C., Argibay J., and Hoebeke J. (1998) An agonist-like monoclonal antibody to the human β 2-adrenergic receptor. Eur.J. Pharmacol. 348:123-133). The control peptide for Tox0 was Ctr1Tox0.

Purified ANT = target: T1, Purified ANT (Rattus norvegicus, UniProt Q05962); test: biochemical; format: binding
T1 sequence (Q05962 1-298): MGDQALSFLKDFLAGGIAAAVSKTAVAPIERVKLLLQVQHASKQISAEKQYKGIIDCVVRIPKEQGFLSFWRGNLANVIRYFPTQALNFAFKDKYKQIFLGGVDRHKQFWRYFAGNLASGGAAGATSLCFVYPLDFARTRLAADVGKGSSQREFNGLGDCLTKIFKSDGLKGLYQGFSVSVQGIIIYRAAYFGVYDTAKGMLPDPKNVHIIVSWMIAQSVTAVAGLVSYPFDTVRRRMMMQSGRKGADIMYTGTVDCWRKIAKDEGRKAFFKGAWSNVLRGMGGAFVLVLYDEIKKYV
Protocol: as §1

[2] = target: T2, adenine nucleotide translocator (ANT), purified from rat heart mitochondria (rat), Q05962; test: SPR (BIAcore), peptide on streptavidin chip, ANT as analyte at one concentration (50 nM)
T2 chain: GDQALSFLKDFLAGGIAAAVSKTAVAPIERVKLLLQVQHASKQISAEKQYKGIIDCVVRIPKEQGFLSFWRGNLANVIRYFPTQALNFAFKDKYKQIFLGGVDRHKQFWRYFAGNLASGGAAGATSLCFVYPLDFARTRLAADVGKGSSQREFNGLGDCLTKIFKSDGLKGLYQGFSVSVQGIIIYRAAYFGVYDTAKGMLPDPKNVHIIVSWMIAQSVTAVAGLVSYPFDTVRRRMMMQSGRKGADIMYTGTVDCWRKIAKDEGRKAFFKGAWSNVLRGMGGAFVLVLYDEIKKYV

[3] = target: T2, adenine nucleotide translocator (ANT), …

## C[C@H](NC(=O)[C@H](Cc1ccccc1)NC(=O)[C@H](Cc1ccc(O)cc1)NC(=O)[C@H](CCCNC(=N)N)NC(=O)[C@H](Cc1c[nH]c2ccccc12)NC(=O)[C@H](Cc1ccccc1)NC(=O)[C@H](CCC(N)=O)NC(=O)[C@@H](NC(=O)[C@H](CCCNC(=N)N)NC(=O)[C@H](CCCCN)NC(=O)[C@H](CC(=O)O)NC(=O)[C@H](CCCNC(=N)N)NC(=O)[C@H](CCCNC(=N)N)NC(=O)[C@H](CCCNC(=N)N)NC(=O)[C@H](CCC(N)=O)NC(=O)[C@H](CCCNC(=N)N)NC(=O)[C@H](CCCNC(=N)N)NC(=O)[C@H](CCCCN)NC(=O)[C@H](CCCCN)NC(=O)[C@H](CCCNC(=N)N)NC(=O)CCCC[C@@H]1SC[C@@H]2NC(=O)N[C@@H]21)[C@@H](C)O)C(=O)NCC(=O)N[C@@H](CC(N)=O)C(=O)O [Save1, Biot-RKKRRQRRR-DKRTQFWRYFAGN (hANT2)] (Biotin-RKKRRQRRRDKRTQFWRYFAGN-OH; C-terminus assumed)
[1]; 5 μM + Atr 600 μM
  Mitrochondrial swelling (sw) %: 5%
[1]; 5 μM alone
  Mitrochondrial swelling (sw) %: 2%
[1]; 20 μM + Atr 600 μM
  Mitrochondrial swelling (sw) %: 12%
[1]; 20 μM alone
  Mitrochondrial swelling (sw) %: 12%
Purified VDAC
  specific binding of VDAC: did not result in any specific binding
Purified ANT
  Kd: 0.01 nM

## C[C@H](NC(=O)CCCC[C@@H]1SC[C@@H]2NC(=O)N[C@@H]21)C(=O)N[C@@H](CS)C(=O)N[C@@H](CC(=O)O)C(=O)N[C@@H](CS)C(=O)N[C@@H](CCCNC(=N)N)C(=O)NCC(=O)N[C@@H](CC(=O)O)C(=O)N[C@@H](CS)C(=O)N[C@@H](Cc1ccccc1)C(=O)N[C@@H](CS)C(=O)NCC(=O)NCC(=O)N[C@@H](CC(=O)O)C(=O)N[C@@H](CCCCN)C(=O)N[C@@H](CCCNC(=N)N)C(=O)N[C@H](C(=O)N[C@@H](CCC(N)=O)C(=O)N[C@@H](Cc1ccccc1)C(=O)N[C@@H](Cc1c[nH]c2ccccc12)C(=O)N[C@@H](CCCNC(=N)N)C(=O)N[C@@H](Cc1ccc(O)cc1)C(=O)N[C@@H](Cc1ccccc1)C(=O)N1CCC[C@H]1C(=O)NCC(=O)N[C@@H](CC(N)=O)C(=O)O)[C@@H](C)O [Tox6, Biot-ACDCRGDCFC-GG-DKRTQFWRYFPGN (hANT2m)] (Biotin-ACDCRGDCFCGGDKRTQFWRYFPGN-OH; N-terminus and C-terminus assumed)
[1]
  Induction of Mitochondrial swelling (sw): ++
Purified VDAC
  specific binding of VDAC: did not result in any specific binding

## C[C@@H](O)[C@H](NC(=O)[C@H](CCCNC(=N)N)NC(=O)[C@H](CCCCN)NC(=O)[C@H](CC(=O)O)NC(=O)CNC(=O)CNC(=O)[C@H](CS)NC(=O)[C@H](CCCNC(=N)N)NC(=O)CNC(=O)[C@H](CC(N)=O)NC(=O)[C@H](CS)NC(=O)CCCC[C@@H]1SC[C@@H]2NC(=O)N[C@@H]21)C(=O)N[C@@H](CCC(N)=O)C(=O)N[C@@H](Cc1ccccc1)C(=O)N[C@@H](Cc1c[nH]c2ccccc12)C(=O)N[C@@H](CCCNC(=N)N)C(=O)N[C@@H](Cc1ccc(O)cc1)C(=O)N[C@@H](Cc1ccccc1)C(=O)N1CCC[C@H]1C(=O)NCC(=O)N[C@@H](CC(N)=O)C(=O)O [Tox5, Biot-CNGRC-GG-DKRTQFWRYFPGN (hANT2m)] (Biotin-CNGRCGGDKRTQFWRYFPGN-OH; N-terminus and C-terminus assumed)
[1]
  Induction of Mitochondrial swelling (sw): ++
Purified VDAC
  specific binding of VDAC: did not result in any specific binding

## C=C1[C@@H]2CC[C@H]3[C@]4(C)C[C@H](O[C@@H]5O[C@H](CO)[C@@H](OS(=O)(=O)O)[C@H](OS(=O)(=O)O)[C@H]5OC(=O)CC(C)C)C[C@@H](C(=O)O)[C@H]4CC[C@]3(C2)[C@H]1O [Atractyloside, atractyloside, reference compound]
[1]; 600 μM alone
  Mitrochondrial swelling (sw) %: 110%

## Biot- CNGRC-GG-HFAIGCRHSAIG [Ctr1 Tox1]
[1]
  Induction of Mitochondrial swelling (sw): −

## Biot-CNGRC-GG-CNGRC [Ctr2 Tox1]
[1]
  Induction of Mitochondrial swelling (sw): −

## Biot-GG-HFRIGCRHSRIG [Ctr3 Tox1]
[1]
  Induction of Mitochondrial swelling (sw): +

## CC[C@H](C)[C@H](NC(=O)CNC(=O)[C@@H](NC(=O)[C@H](CCCNC(=N)N)NC(=O)[C@H](CO)NC(=O)[C@H](Cc1c[nH]cn1)NC(=O)[C@H](CCCNC(=N)N)NC(=O)[C@H](CS)NC(=O)CNC(=O)[C@@H](NC(=O)[C@H](CCCNC(=N)N)NC(=O)[C@H](Cc1ccccc1)NC(=O)[C@H](Cc1c[nH]cn1)NC(=O)[C@@H](NC(=O)[C@H](Cc1ccccc1)NC(=O)[C@H](CC(C)C)NC(=O)[C@H](CC(C)C)NC(=O)[C@H](CCC(N)=O)NC(=O)[C@H](CCC(N)=O)NC(=O)[C@H](CC(C)C)NC(=O)[C@@H](NC(=O)[C@H](CCCNC(=N)N)NC(=O)[C@@H](NC(=O)[C@H](CC(C)C)NC(=O)[C@H](C)NC(=O)[C@H](CCC(=O)O)NC(=O)[C@@H](NC(=O)CNC(=O)[C@@H](NC(=O)[C@H](Cc1c[nH]c2ccccc12)NC(=O)[C@@H](NC(=O)[C@H](CC(=O)O)NC(=O)CCCC[C@@H]1SC[C@@H]2NC(=O)N[C@@H]21)[C@@H](C)O)[C@@H](C)O)C(C)C)[C@@H](C)CC)[C@@H](C)CC)[C@@H](C)CC)[C@@H](C)CC)[C@@H](C)CC)C(=O)N[C@H](C(=O)N[C@@H](CCC(N)=O)C(=O)N[C@@H](CCC(N)=O)C(=O)N[C@@H](CCCNC(=N)N)C(=O)N[C@@H](CCCNC(=N)N)C(=O)N[C@H](C(=O)N[C@@H](CCCNC(=N)N)C(=O)N[C@@H](CC(N)=O)C(=O)NCC(=O)N[C@@H](C)C(=O)N[C@@H](CO)C(=O)N[C@@H](CCCCN)C(=O)N[C@@H](CO)C(=O)O)[C@@H](C)O)[C@@H](C)CC [Tox0]
Purified ANT
  Kd: 0.15 nM

## [Ca+2] [Ca 2 +, reference compound]
[1]; 100 μM alone
  Mitrochondrial swelling (sw) %: 100%

## Biot-RKKRRQRRR-LASGGAAGATSLCFVYPL (hANT[117-134]) [Save2]
[1]; 10 μM + Atr 600 μM
  Mitrochondrial swelling (sw) %: 16%
[1]; 10 μM alone
  Mitrochondrial swelling (sw) %: 2%
[1]; 20 μM + Atr 600 μM
  Mitrochondrial swelling (sw) %: 16%
[1]; 20 μM alone
  Mitrochondrial swelling (sw) %: 16%

## Biot- CNGRC-GG-HFRIGCRHSRIG [Tox1]
[1]
  Induction of Mitochondrial swelling (sw): ++
Purified VDAC; VDAC concentrations ten times higher than ANT
  association of VDAC with the peptide ligand: only extremely low association
Purified ANT; surface plasmon resonance
  binding to purified ANT (in words): Binds

## ACDCRGDCFCGGDKRTQFWRYFPGN (modifications not checked) [Tox6 (Biot-…-GG-… (hANT2m))]
[2]
  relative affinity: 0.7 nM

## CNGRCGGDKRTQFWRYFPGN (modifications not checked) [Tox5 (Biot-CNGRC-GG-… (hANT2m))]
[2]
  relative affinity: 0.1 nM

## DTWTGVEALIRILQQLLFIHFRIGCRHSRIGIIQQRRTRNGASKS (not fully specified (N-terminus)) [Tox0 (Biotin-Vpr52-96)]
[3]
  Kd: 0.15 nM
